Assay results taken from patent US10758534B2 (Vertex Pharmaceuticals Incorporated, priority 2014, dated 2020).

Target: T1, F508del (Homo sapiens, UniProt P13569, DEL508-508)
T1 construct: expressed in transfected cells
Test: Protocol 1: membrane potential optical assay (FLIPR III, voltage sensing dye), identification of potentiator compounds
Assay type: cell-based
Conditions: Table 3, compounds of Table 1
Description: Membrane Potential Optical Methods for Assaying F508del Modulation Properties of Compounds
The assay utilizes fluorescent voltage sensing dyes to measure changes in membrane potential using a fluorescent plate reader (e.g., FLIPR III, Molecular Devices, Inc.) as a readout for increase in functional F508del in NIH 3T3 cells. The driving force for the response is the creation of a chloride ion gradient in conjunction with channel activation by a single liquid addition step after the cells have previously been treated with compounds and subsequently loaded with a voltage sensing dye.
Identification of Potentiator Compounds
To identify potentiators of F508del, a double-addition HTS assay format was developed. This HTS assay utilizes fluorescent voltage sensing dyes to measure changes in membrane potential on the FLIPR III as a measurement for increase in gating (conductance) of F508del in temperature-corrected F508del NIH 3T3 cells. The driving force for the response is a Cl^− ion gradient in conjunction with channel activation with forskolin in a single liquid addition step using a fluorescent plate reader such as FLIPR III after the cells have previously been treated with potentiator compounds (or DMSO vehicle control) and subsequently loaded with a redistribution dye.
Bath Solution #1: (in mM) NaCl 160, KCl 4.5, CaCl2 2, MgCl2 1, HEPES 10, pH 7.4 with NaOH.
Chloride-free bath solution: Chloride salts in Bath Solution #1 (above) are substituted with gluconate salts.
NIH3T3 mouse fibroblasts stably expressing F508del are used for optical measurements of membrane potential. The cells are maintained at 37° C. in 5% CO2 and 90% humidity in Dulbecco's modified Eagle's medium supplemented with 2 mM glutamine, 10% fetal bovine serum, 1×NEAA, β-ME, 1× pen/strep, and 25 mM HEPES in 175 cm^2 culture flasks. For all optical assays, the cells were seeded at ˜20,000/well in 384-well matrigel-coated plates and cultured for 2 hrs at 37° C. before culturing at 27° C. for 24 hrs. for the potentiator assay. For the correction assays, the cells are cultured at 27° C. or 37° C. with and without compounds for 16-24 hours.

T1 sequence (P13569 with tags, fused parts or gaps DEL508-508): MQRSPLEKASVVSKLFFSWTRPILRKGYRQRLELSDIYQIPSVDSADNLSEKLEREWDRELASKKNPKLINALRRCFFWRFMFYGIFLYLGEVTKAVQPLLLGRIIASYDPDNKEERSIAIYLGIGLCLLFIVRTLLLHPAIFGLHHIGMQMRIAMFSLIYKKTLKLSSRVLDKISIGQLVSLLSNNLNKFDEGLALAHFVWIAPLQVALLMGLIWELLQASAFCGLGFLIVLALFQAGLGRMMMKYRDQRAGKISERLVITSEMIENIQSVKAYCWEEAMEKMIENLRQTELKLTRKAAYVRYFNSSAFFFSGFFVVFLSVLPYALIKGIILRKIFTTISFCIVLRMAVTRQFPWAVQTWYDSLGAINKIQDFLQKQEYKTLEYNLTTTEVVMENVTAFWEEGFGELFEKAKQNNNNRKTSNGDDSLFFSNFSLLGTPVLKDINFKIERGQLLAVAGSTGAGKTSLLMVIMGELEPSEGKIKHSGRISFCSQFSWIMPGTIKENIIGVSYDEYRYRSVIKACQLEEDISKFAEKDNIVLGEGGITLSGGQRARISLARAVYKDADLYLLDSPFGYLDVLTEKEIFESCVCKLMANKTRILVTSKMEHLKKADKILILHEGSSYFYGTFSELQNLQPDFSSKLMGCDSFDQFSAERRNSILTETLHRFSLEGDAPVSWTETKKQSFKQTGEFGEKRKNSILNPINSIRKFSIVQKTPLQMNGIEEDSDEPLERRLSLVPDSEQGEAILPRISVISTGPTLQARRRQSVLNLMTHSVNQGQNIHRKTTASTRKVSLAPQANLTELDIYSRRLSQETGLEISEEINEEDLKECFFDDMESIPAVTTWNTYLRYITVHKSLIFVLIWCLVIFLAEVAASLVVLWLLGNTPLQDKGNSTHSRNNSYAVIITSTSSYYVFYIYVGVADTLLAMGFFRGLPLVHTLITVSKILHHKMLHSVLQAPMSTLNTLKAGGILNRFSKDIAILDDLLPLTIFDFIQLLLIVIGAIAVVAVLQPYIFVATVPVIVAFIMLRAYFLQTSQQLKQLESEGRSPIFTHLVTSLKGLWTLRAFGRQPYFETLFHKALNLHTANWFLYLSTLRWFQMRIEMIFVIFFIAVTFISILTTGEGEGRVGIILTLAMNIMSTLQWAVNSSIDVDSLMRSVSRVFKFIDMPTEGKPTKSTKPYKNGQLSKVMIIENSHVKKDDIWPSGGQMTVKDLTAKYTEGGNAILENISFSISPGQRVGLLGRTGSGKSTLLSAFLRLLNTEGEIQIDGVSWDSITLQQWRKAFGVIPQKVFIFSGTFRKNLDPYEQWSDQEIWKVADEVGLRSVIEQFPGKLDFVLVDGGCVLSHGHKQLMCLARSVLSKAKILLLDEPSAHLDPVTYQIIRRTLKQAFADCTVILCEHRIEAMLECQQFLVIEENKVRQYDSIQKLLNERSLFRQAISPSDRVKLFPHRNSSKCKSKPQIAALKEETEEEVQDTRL

Row | Structure (SMILES) | EC30
1 | CC(C)COc1ccc(F)c(-c2ccc(C(=O)NS(=O)(=O)c3cccc(N)n3)c(N3[C@H](C)CC[C@@H]3C)n2)c1 [Compound 807, N-[(6-amino-2-pyridyl)sulfonyl]-2-[(2S,5R)-2,5-dimethylpyrrolidin-1-yl]-6-(2-fluoro-5-isobutoxy-phenyl)pyridine-3-carboxamide] | +++ (“+++” means <3 uM)
2 | Cc1cc(C)c(Oc2nc(-c3cnn(C(C)C)c3)ccc2C(=O)NS(=O)(=O)c2cccc(N)n2)c(C)c1 [Compound 808, N-[(6-amino-2-pyridyl)sulfonyl]-6-(1-isopropylpyrazol-4-yl)-2-(2,4,6-trimethylphenoxy)pyridine-3-carboxamide] | ++ (“++” means between 3 uM and 10 uM)
3 | Cc1ccc(-c2nc(C(C)(C)C)ccc2C(=O)NS(=O)(=O)c2ccc(O)cc2)cc1 [Compound 809, 6-tert-butyl-N-(4-hydroxyphenyl)sulfonyl-2-(p-tolyl)pyridine-3-carboxamide] | ++ (“++” means between 3 uM and 10 uM)
4 | Cc1cc(C)c(Oc2nc(-c3ccc(CN4CCOCC4)cc3)ccc2C(=O)NS(=O)(=O)c2cccc(N)n2)c(C)c1 [Compound 810, N-[(6-amino-2-pyridyl)sulfonyl]-6-[4-(morpholinomethyl)phenyl]-2-(2,4,6-trimethylphenoxy)pyridine-3-carboxamide] | ++ (“++” means between 3 uM and 10 uM)
5 | CC(C)Oc1ccc(-c2ccc(C(=O)NS(=O)(=O)c3cccc(N)n3)c(N3C[C@@H](C)CC3(C)C)n2)cn1 [Compound 811, N-[(6-amino-2-pyridyl)sulfonyl]-6-(6-isopropoxy-3-pyridyl)-2-[(4S)-2,2,4-trimethylpyrrolidin-1-yl]pyridine-3-carboxamide] | +++ (“+++” means <3 uM)
6 | Cc1cc(C)c(Oc2nc(-c3cn(C)nc3C(F)(F)F)ccc2C(=O)NS(=O)(=O)c2cccc(N)n2)c(C)c1 [Compound 812, N-[(6-amino-2-pyridyl)sulfonyl]-6-[1-methyl-3-(trifluoromethyl)pyrazol-4-yl]-2-(2,4,6-trimethylphenoxy)pyridine-3-carboxamide] | ++ (“++” means between 3 uM and 10 uM)
7 | CCOc1ccc(-c2ccc(C(=O)NS(=O)(=O)c3cc[nH]n3)c(Oc3ccc(C)cc3C)n2)cc1 [Compound 813, 2-(2,4-dimethylphenoxy)-6-(4-ethoxyphenyl)-N-(1H-pyrazol-3-ylsulfonyl)pyridine-3-carboxamide] | +++ (“+++” means <3 uM)
8 | Cc1nc(OC(C)C)ccc1-c1ccc(C(=O)NS(=O)(=O)c2cccc(N)n2)c(N2CC(C)CC2(C)C)n1 (stereo not shown) [Compound 814, N-[(6-amino-2-pyridyl)sulfonyl]-6-(6-isopropoxy-2-methyl-3-pyridyl)-2-(2,2,4-trimethylpyrrolidin-1-yl)pyridine-3-carboxamide] | +++ (“+++” means <3 uM)
9 | Cc1cc(C)c(Oc2nc(-c3cc(F)cc(F)c3)ccc2C(=O)NS(=O)(=O)c2ccc[nH]c2=O)c(C)c1 [Compound 815, 6-(3,5-difluorophenyl)-N-[(2-oxo-1H-pyridin-3-yl)sulfonyl]-2-(2,4,6-trimethylphenoxy)pyridine-3-carboxamide] | ++ (“++” means between 3 uM and 10 uM)
10 | CCc1cnc2c(c1)cc(C(=O)NS(=O)(=O)c1cccc(N)n1)n2Cc1c(C)cc(C)cc1C [Compound 816, N-[(6-amino-2-pyridyl)sulfonyl]-5-ethyl-1-[(2,4,6-trimethylphenyl)methyl]pyrrolo[2,3-b]pyridine-2-carboxamide] | ++ (“++” means between 3 uM and 10 uM)
11 | Cc1cc(C)c(Oc2ncc(-c3ccccc3C)cc2C(=O)NS(=O)(=O)c2cccc(N)n2)c(C)c1 [Compound 817, N-[(6-amino-2-pyridyl)sulfonyl]-5-(o-tolyl)-2-(2,4,6-trimethylphenoxy)pyridine-3-carboxamide] | +++ (“+++” means <3 uM)
12 | CC(C)Oc1ccc(-c2ccc(C(=O)NS(=O)(=O)c3cccc(N)n3)c(N3CCC4(CC3)OCc3ccccc34)n2)cn1 [Compound 818, N-[(6-amino-2-pyridyl)sulfonyl]-6-(6-isopropoxy-3-pyridyl)-2-spiro[1H-isobenzofuran-3,4′-piperidine]-1′-yl-pyridine-3-carboxamide] | +++ (“+++” means <3 uM)
13 | CCOc1ccc(-c2ccc(C(=O)NS(=O)(=O)c3nccnc3N)c(-c3ccc(C)cc3)n2)cc1 [Compound 819, N-(3-aminopyrazin-2-yl)sulfonyl-6-(4-ethoxyphenyl)-2-(p-tolyl)pyridine-3-carboxamide] | + (“+” means greater than 10 uM)
14 | Cc1ccc(-c2ccc(C(=O)NS(=O)(=O)c3nccnc3N)c(-c3ccc(C)cc3)n2)cc1 [Compound 820, N-(3-aminopyrazin-2-yl)sulfonyl-2,6-bis(p-tolyl)pyridine-3-carboxamide] | + (“+” means greater than 10 uM)
15 | CNc1cc(S(=O)(=O)NC(=O)c2cc(C(C)(C)C)nn2Cc2c(C)cccc2C)ccn1 [Compound 821, 5-tert-butyl-2-[(2,6-dimethylphenyl)methyl]-N-[[12-(methylamino)-4-pyridyl]sulfonyl]pyrazole-3-carboxamide] | ++ (“++” means between 3 uM and 10 uM)
16 | Cc1cc(F)ccc1-c1ccc(C(=O)NS(=O)(=O)c2cccc(N)n2)c(N2CC(C)CC2(C)C)n1 (stereo not shown) [Compound 822, N-[(6-amino-2-pyridyl)sulfonyl]-6-(4-fluoro-2-methyl-phenyl)-2-(2,2,4-trimethylpyrrolidin-1-yl)pyridine-3-carboxamide] | +++ (“+++” means <3 uM)
17 | CCc1cccc(S(=O)(=O)NC(=O)c2cc(C(C)(C)C)nn2Cc2c(C)cc(C)cc2C)c1 [Compound 823, 5-tert-butyl-N-(3-ethylphenyl)sulfonyl-2-[(2,4,6-trimethylphenyl)methyl]pyrazole-3-carboxamide] | + (“+” means greater than 10 uM)
18 | CC(C)COc1cc(F)cc(-c2ccc(C(=O)NS(=O)(=O)c3cccc(N)n3)c(OCC3(C)COC3)n2)c1 [Compound 824, N-[(6-amino-2-pyridyl)sulfonyl]-6-(3-fluoro-5-isobutoxy-phenyl)-2-[(3-methyloxetan-3-yl)methoxy]pyridine-3-carboxamide] | ++ (“++” means between 3 uM and 10 uM)
19 | COc1cccnc1S(=O)(=O)NC(=O)C1(C)c2ccccc2CN1Cc1c(C)cc(C)cc1C (stereo not shown) [Compound 825, N-[(3-methoxy-2-pyridyl)sulfonyl]-1-methyl-2-[(2,4,6-trimethylphenyl)methyl]isoindoline-1-carboxamide] | ++ (“++” means between 3 uM and 10 uM)
20 | Cc1cc(C)c(Oc2nc(C3(C)CC3)ccc2C(=O)NS(=O)(=O)c2cccc(N)c2)c(C)c1 [Compound 826, N-(3-aminophenyl)sulfonyl-6-(1-methylcyclopropyl)-2-(2,4,6-trimethylphenoxy)pyridine-3-carboxamide] | +++ (“+++” means <3 uM)
21 | Cc1nc(N(C)CC(C)C)ccc1-c1ccc(C(=O)NS(=O)(=O)c2cccc(N)n2)c(N2CC(C)CC2(C)C)n1 (stereo not shown) [Compound 827, N-[(6-amino-2-pyridyl)sulfonyl]-6-[6-[isobutyl(methyl)amino]-2-methyl-3-pyridyl]-2-(2,2,4-trimethylpyrrolidin-1-yl)pyridine-3-carboxamide] | +++ (“+++” means <3 uM)
22 | COc1cc(OC)cc(-c2ccc(C(=O)NS(=O)(=O)c3cccc(N)n3)c(Oc3c(C)cc(C)cc3C)n2)c1 [Compound 828, N-[(6-amino-2-pyridyl)sulfonyl]-6-(3,5-dimethoxyphenyl)-2-(2,4,6-trimethylphenoxy)pyridine-3-carboxamide] | +++ (“+++” means <3 uM)
